Our source for the EC50 values is patent US20240002354A1, “ANTIDIABETIC COMPOUNDS AND COMPOSITIONS” (REZUBIO PHARMACEUTICALS CO., LTD, priority 2020, published 2024).

T1 sequence (O14842 whole entry): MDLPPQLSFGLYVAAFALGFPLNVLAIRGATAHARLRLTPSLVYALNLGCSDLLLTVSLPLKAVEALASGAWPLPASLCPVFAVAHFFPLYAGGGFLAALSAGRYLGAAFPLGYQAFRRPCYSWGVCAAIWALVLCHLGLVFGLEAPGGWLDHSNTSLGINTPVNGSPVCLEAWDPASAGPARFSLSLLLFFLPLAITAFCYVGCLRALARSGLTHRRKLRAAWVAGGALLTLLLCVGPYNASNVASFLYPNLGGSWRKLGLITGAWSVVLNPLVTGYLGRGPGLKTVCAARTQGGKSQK

The assay addresses T1, GPR40 (Homo sapiens, UniProt O14842).
T1 construct: expressed in transfected cells
The experiment in a line: IP1 accumulation assay (Cisbio IP-One HTRF) in HEK293 cells stably expressing GPR40. It counts as cell-based. The note with it: HEK293 cells stably expressing GPR40, 37° C. for 2 hours, % Effect relative to AMG-1638 positive control. As for the experimental part:
IP1 accumulation assay was used to evaluate the potency of compounds. HEK293 cells stably expressing GPR40 were cultured in 5% CO2 incubator (ThermoFisher) in maintenance media (Dulbecco's modified Eagle's medium with 4.5 g/L of glucose, 10% fetal bovine serum, 100 μg/mL Hygromycin, and Penicillin (100 U/mL)/Streptomycin (100 μg/mL)) till 100% confluency. Cells were harvested freshly, spun down at 300×g for 5 min, and resuspended in pre-warmed 1× stimulant buffer from Cisbio IP-One HTRF Detection kit (Cisbio). Cell density was adjusted to 2.0×10^6 cells/mL. DMSO was used as blank control and AMG-1638 (CAS #: 1142214-62-7) as positive control. Compounds were prepared at 10 mM in DMSO and 5 nL of 3× serially diluted compounds (10 concentrations) were added to each well of the 384-LDV assay plate (Corning) by using ECHO 550 (Labcyte). Five μL of cells in suspension were transferred into each well by using Multidrop Combi Reagent Dispenser (ThermoFisher). Assay plate was then sealed and incubated at 37° C. for 2 hours. IP-d2 reagent and anti-IP1 reagent were prepared following the manual (Cisbio). Five μL of IP1-d2 and then 5 μL of anti-IP1 antibody was added to each well sequentially. Assay plate was incubated at room temperature for 60 min and then read at 665 nm/615 nm on an Envision plate reader (PerkinElmer). The ratio of values obtained at 665 nm and 615 nm was used for calculation of IP1 accumulation: % Effect=(Ratiosample−Ratioblank)/(RatioAMG-1638−Ratioblank)×100. Dose curve was fitted and EC50 of each compound was calculated by using XLFit.
Background: In TR-FRET formats the signal depends on donor and acceptor labels being close together.
In turn, `CCCCCCc1cn(CCc2ccc(OC(F)(F)F)c(CN3CCC([C@H]4CCc5ccc([C@H](C6CC6)[C@H](C)C(=O)O)cc5O4)CC3)c2)nn1` [compound 189, (2S,3R)-3-cyclopropyl-3-((R)-2-(1-(5-(2-(4-hexyl-1H-1,2,3-triazol-1-yl)ethyl)-2-(trifluoro-methoxy)benzyl)piperidin-4-yl)chroman-7-yl)-2-methylpropanoic acid] yielded an EC50 of 1 to 50 nM.

As for `CCCCCCn1cc(COc2ccc(OC(F)(F)F)c(CN3CCC([C@H]4CCc5ccc([C@H](C6CC6)[C@H](C)C(=O)O)cc5O4)CC3)c2)nn1` [compound 190, (2S,3R)-3-cyclopropyl-3-((R)-2-(1-(5-((1-hexyl-1H-1,2,3-triazol-4-yl)methoxy)-2-(trifluoro-methoxy)benzyl)piperidin-4-yl)chroman-7-yl)-2-methylpropanoic acid], the EC50 fell in the range of 50 to 250 nM.

The compound `C#Cc1ccc(OC(F)(F)F)c(CN2CCC([C@H]3CCc4ccc([C@H](C5CC5)[C@H](C)C(=O)O)cc4O3)CC2)c1` [compound 193, (2S,3R)-3-cyclopropyl-3-((R)-2-(1-(5-ethynyl-2-(trifluoromethoxy)benzyl)piperidin-4-yl)-chroman-7-yl)-2-methylpropanoic acid] showed an EC50 of 1 to 50 nM.

Compound `C[C@H](C(=O)O)[C@H](c1ccc2c(c1)O[C@H](C1CCN(Cc3cc(N=[N+]=[N-])ccc3OC(F)(F)F)CC1)CC2)C1CC1` [compound 194, (2S,3R)-3-((S)-2-(1-(5-azido-2-(trifluoromethoxy)benzyl)piperidin-4-yl)chroman-7-yl)-3-cyclopropyl-2-methylpropanoic acid] gave an EC50 of 1 to 50 nM.

Compound `CCCCCCc1cn(Cc2ccc(OC(F)(F)F)c(CN3CCC([C@H]4CCc5ccc([C@H](C6CC6)[C@H](C)C(=O)O)cc5O4)CC3)c2)nn1` [compound 195, (2S,3R)-3-cyclopropyl-3-((R)-2-(1-(5-((4-hexyl-1H-1,2,3-triazol-1-yl)methyl)-2-(trifluoro-methoxy)benzyl)piperidin-4-yl)chroman-7-yl)-2-methylpropanoic acid] displayed an EC50 of 1 to 50 nM.

Take `CCCCCCCCCCc1ccc(OC(F)(F)F)c(CN2CCC([C@H]3CCc4ccc([C@H](C5CC5)[C@H](C)C(=O)O)cc4O3)CC2)c1` [compound 205, (2S,3R)-3-cyclopropyl-3-((R)-2-(1-(5-decyl-2-(trifluoromethoxy)benzyl)piperidin-4-yl)chroman-7-yl)-2-methylpropanoic acid]: the EC50 lay in the range of 50 to 250 nM.

Regarding `COc1ccc2cc(CN=[N+]=[N-])oc2c1CN1CCC([C@H]2CCc3ccc([C@H](C4CC4)[C@H](C)C(=O)O)cc3O2)CC1` [compound 207, (2S,3R)-3-((R)-2-(1-((2-(azidomethyl)-6-methoxybenzofuran-7-yl)methyl)-piperidin-4-yl)chroman-7-yl)-3-cyclopropyl-2-methylpropanoic acid], the EC50 is not below 5000 nM.

`CCCCCCc1cn(Cc2cc3ccc(OC)c(CN4CCC([C@H]5CCc6ccc([C@H](C7CC7)[C@H](C)C(=O)O)cc6O5)CC4)c3o2)nn1` [compound 209, (2S,3R)-3-cyclopropyl-3-((R)-2-(1-((2-((4-hexyl-1H-1,2,3-triazol-1-yl)methyl)-6-methoxybenzofuran-7-yl)methyl)piperidin-4-yl)chroman-7-yl)-2-methylpropanoic acid]: the EC50 lay in the range of 1000 to 5000 nM.

On to `C[C@H](C(=O)O)[C@H](c1ccc2c(c1)O[C@@H](C1CCN(Cc3cc(-c4cn(CCCCCCCCCCCCCCCCCC(=O)OCc5ccccc5)nn4)ccc3OC(F)(F)F)CC1)CC2)C1CC1` [compound 210, (2S,3R)-3-((R)-2-(1-(5-(1-(18-(benzyloxy)-18-oxooctadecyl)-1H-1,2,3-triazol-4-yl)-2-(trifluoromethoxy)benzyl)piperidin-4-yl)chroman-7-yl)-3-cyclopropyl-2-methylpropanoic acid], for which the EC50 was 50 to 250 nM.

Regarding “(2S,2'S,3R,3′R)-3,3′-((2R,2′R)-2,2′-(1,1′-(((1,1′-(26-(2-(bis(3-((2-aminoethyl)amino)-3-oxopropyl)amino) ethyl)-18,23,29,34-tetraoxo-19,22,26,30,33-pentaazahenpentacontane-1,51-diyl)bis(1H-1,2,3-triazole-4,1-diyl))bis(2-(trifluoromethoxy)-5,1-phenylene))bis(methylene))bis (piperidine-4,1-diyl))bis(chroman-7,2-diyl))bis(3-cyclopropyl-2-methylpropanoic acid) [compound 203]”, the EC50 was in the range of 50 to 250 nM.

In general, EC50 refers to the midpoint of the concentration-response curve. The low end stands for a more potent agent, the high end for a less potent agent.
